# Results reported in patent US9789116B2, “Compositions and methods of modulating short-chain dehydrogenase activity” (CASE WESTERN RESERVE UNIVERSITY, priority 2013, dated 2017).
# How the values were obtained:
# [1] = test system: FVB mice; experiment: Toxicity study in FVB mice, daily weights; format: in vivo, mouse; conditions: 5 mg/kg IP twice daily for 21 days, N=6
# [2] = Hepatocyte stability; format: in vitro ADME; conditions: hepatocytes in culture; printed 'Stable > couple hrs' over two lines
# Description: Time to inhibition refers to the time needed to inhibit the generation of NADH by 15-PGDH from the moment with drug is added into the reaction mix. Delta Tm refers to the shift in melting temperature of recombinant 15-PGDH in the presence of drug (with cofactor NADH also present). Concentration of Full Cell Line Reporter Induction refers to the concentration of drug that needs to be added to reporter cell line to achieve maximal induction of the 15-PGDH-luciferase gene fusion reporter cassette, as measured by luciferase assays. Hepatocyte stability refers to the half-life of compound in the presence of hepatocytes in culture. Toxicity refers to the concentration of compound needed to decrease cell numbers in a cell culture assay.
# [3] = test system: C57BL/6J female mice; experiment: Survival after whole body irradiation; format: in vivo, mouse; conditions: for Number of mice surviving: cohort of 3
# [4] = test system: C57BL/6J mice irradiated with 11Gy; experiment: Survival of irradiated mice receiving marrow allograft (Example 6); format: in vivo, mouse; conditions: cohort of 3
# Text: The experimental design is depicted in FIG. 50.
# Under the conditions of the mouse colony during this study, control mice receiving 100,000-500,000 cells are all dead between days 4-13 of study. […] Such activity would be of particular utility in settings, such as transplantation with umbilical cord stem cells, in which donor cell numbers are limited.
# [5] = test system: mice irradiated with 11Gy; experiment: Survival of mice following bone marrow transplant (Example 11); format: in vivo, mouse
# Text: A matched control cohort received injections with vehicle only. On day one mice received an infusion of donor marrow at doses of 100,000 cells; 200,000 cells; or 500,000 cells. […] Among mice receiving 200,000 donor cells, all control mice were dead by day 12.
smiles,measurement,setting,value
"CCCC[S+]([O-])c1sc2nc(-c3cccs3)cc(-c3ccccc3)c2c1N (centres unmarked) [SW033291, 2-(butylsulfinyl)-4-phenyl-6-(thiophen-2-yl)thieno[2,3-b]pyridin-3-amine]",mouse weight gain,[1],no evidence for SW033291 reducing mouse weight
same,Hepatocyte stability,[2],couple hrs
same,Number of mice surviving,"[3]; 7 Gy, 5 mg/kg IP daily for 7 doses, Day 5",3
same,Number of mice surviving,"[3]; 7 Gy, 5 mg/kg IP daily for 7 doses, Day 6",3
same,Number of mice surviving,"[3]; 7 Gy, 5 mg/kg IP daily for 7 doses, Day 7",3
same,Number of mice surviving,"[3]; 7 Gy, 5 mg/kg IP daily for 7 doses, Day 8",3
same,Number of mice surviving,"[3]; 7 Gy, 5 mg/kg IP daily for 7 doses, Day 9",3
same,Number of mice surviving,"[3]; 7 Gy, 5 mg/kg IP daily for 7 doses, Day 10",3
same,Number of mice surviving,"[3]; 7 Gy, 5 mg/kg IP daily for 7 doses, Day 11",3
same,Number of mice surviving,"[3]; 7 Gy, 5 mg/kg IP daily for 7 doses, Day 12",3
same,Number of mice surviving,"[3]; 7 Gy, 5 mg/kg IP daily for 7 doses, Day 13",3
same,Number of mice surviving,"[3]; 7 Gy, 5 mg/kg IP daily for 7 doses, Day 14",3
same,Number of mice surviving,"[3]; 7 Gy, 5 mg/kg IP daily for 7 doses, Day 15",3
same,Appearance of mice,"[3]; 7 Gy, Day 25, printed 'Looks Healthy' over two lines",Healthy
same,Number of mice surviving,"[3]; 9 Gy, 5 mg/kg IP daily for 7 doses, Day 5",3
same,Number of mice surviving,"[3]; 9 Gy, 5 mg/kg IP daily for 7 doses, Day 6",3
same,Number of mice surviving,"[3]; 9 Gy, 5 mg/kg IP daily for 7 doses, Day 7",3
same,Number of mice surviving,"[3]; 9 Gy, 5 mg/kg IP daily for 7 doses, Day 8",3
same,Number of mice surviving,"[3]; 9 Gy, 5 mg/kg IP daily for 7 doses, Day 9",3
same,Number of mice surviving,"[3]; 9 Gy, 5 mg/kg IP daily for 7 doses, Day 10",3
same,Number of mice surviving,"[3]; 9 Gy, 5 mg/kg IP daily for 7 doses, Day 11",3
same,Number of mice surviving,"[3]; 9 Gy, 5 mg/kg IP daily for 7 doses, Day 12",2
same,Number of mice surviving,"[3]; 9 Gy, 5 mg/kg IP daily for 7 doses, Day 13",2
same,Number of mice surviving,"[3]; 9 Gy, 5 mg/kg IP daily for 7 doses, Day 14",1
same,Number of mice surviving,"[3]; 9 Gy, 5 mg/kg IP daily for 7 doses, Day 15",0
same,longer survival than vehicle control,"[3]; 11Gy, 5 mg/kg IP daily for 7 doses",48 h
same,Number of mice surviving,"[3]; 11 Gy, 5 mg/kg IP daily for 7 doses (Table 6), Day 5",3
same,Number of mice surviving,"[3]; 11 Gy, 5 mg/kg IP daily for 7 doses (Table 6), Day 6",3
same,Number of mice surviving,"[3]; 11 Gy, 5 mg/kg IP daily for 7 doses (Table 6), Day 7",3
same,Number of mice surviving,"[3]; 11 Gy, 5 mg/kg IP daily for 7 doses (Table 6), Day 8",3
same,Number of mice surviving,"[3]; 11 Gy, 5 mg/kg IP daily for 7 doses (Table 6), Day 9",2
same,Number of mice surviving,"[3]; 11 Gy, 5 mg/kg IP daily for 7 doses (Table 6), Day 10",0
same,Number of mice surviving,"[3]; 11 Gy, 1 dose/daily for 7 days (Table 7), Day 5",3
same,Number of mice surviving,"[3]; 11 Gy, 1 dose/daily for 7 days (Table 7), Day 6",3
same,Number of mice surviving,"[3]; 11 Gy, 1 dose/daily for 7 days (Table 7), Day 7",3
same,Number of mice surviving,"[3]; 11 Gy, 1 dose/daily for 7 days (Table 7), Day 8",2
same,Number of mice surviving,"[3]; 11 Gy, 1 dose/daily for 7 days (Table 7), Day 9",1
same,Number of mice surviving,"[3]; 11 Gy, 1 dose/daily for 7 days (Table 7), Day 10",0
same,Number of mice surviving,"[3]; 11 Gy, 1 dose/daily, continuous every day, Day 5",3
same,Number of mice surviving,"[3]; 11 Gy, 1 dose/daily, continuous every day, Day 6",3
same,Number of mice surviving,"[3]; 11 Gy, 1 dose/daily, continuous every day, Day 7",3
same,Number of mice surviving,"[3]; 11 Gy, 1 dose/daily, continuous every day, Day 8",3
same,Number of mice surviving,"[3]; 11 Gy, 1 dose/daily, continuous every day, Day 9",2
same,Number of mice surviving,"[3]; 11 Gy, 1 dose/daily, continuous every day, Day 10",0
same,Number of mice surviving,"[3]; 11 Gy, 7 days, 2 dose daily, Day 5",3
same,Number of mice surviving,"[3]; 11 Gy, 7 days, 2 dose daily, Day 6",3
same,Number of mice surviving,"[3]; 11 Gy, 7 days, 2 dose daily, Day 7",3
same,Number of mice surviving,"[3]; 11 Gy, 7 days, 2 dose daily, Day 8",3
same,Number of mice surviving,"[3]; 11 Gy, 7 days, 2 dose daily, Day 9",2
same,Number of mice surviving,"[3]; 11 Gy, 7 days, 2 dose daily, Day 10",0
same,"longer survival than vehicle control, on average","[3]; 11Gy, any of three 5 mg/kg dosing schedules",1 to 2 days
same,Number of mice surviving,"[4]; 1 × 10^5 cells, Day 1",3
same,Number of mice surviving,"[4]; 1 × 10^5 cells, Day 2",3
same,Number of mice surviving,"[4]; 1 × 10^5 cells, Day 3",3
same,Number of mice surviving,"[4]; 1 × 10^5 cells, Day 4",2
same,Number of mice surviving,"[4]; 1 × 10^5 cells, Day 5",1
same,Number of mice surviving,"[4]; 1 × 10^5 cells, Day 6",0
same,Number of mice surviving,"[4]; 2 × 10^5 cells, Day 1",3
same,Number of mice surviving,"[4]; 2 × 10^5 cells, Day 2",3
same,Number of mice surviving,"[4]; 2 × 10^5 cells, Day 3",3
same,Number of mice surviving,"[4]; 2 × 10^5 cells, Day 4",3
same,Number of mice surviving,"[4]; 2 × 10^5 cells, Day 5",3
same,Number of mice surviving,"[4]; 2 × 10^5 cells, Day 6",2
same,Number of mice surviving,"[4]; 2 × 10^5 cells, Day 7",2
same,Number of mice surviving,"[4]; 2 × 10^5 cells, Day 8",2
same,Number of mice surviving,"[4]; 2 × 10^5 cells, Day 9",2
same,Number of mice surviving,"[4]; 2 × 10^5 cells, Day 10",2
same,Number of mice surviving,"[4]; 2 × 10^5 cells, Day 11",2
same,Number of mice surviving,"[4]; 2 × 10^5 cells, Day 12",1
same,Number of mice surviving,"[4]; 2 × 10^5 cells, Day 13",0
same,Number of mice surviving,"[4]; 5 × 10^5 cells, Day 1",3
same,Number of mice surviving,"[4]; 5 × 10^5 cells, Day 2",3
same,Number of mice surviving,"[4]; 5 × 10^5 cells, Day 3",3
same,Number of mice surviving,"[4]; 5 × 10^5 cells, Day 4",3
same,Number of mice surviving,"[4]; 5 × 10^5 cells, Day 5",3
same,Number of mice surviving,"[4]; 5 × 10^5 cells, Day 6",3
same,Number of mice surviving,"[4]; 5 × 10^5 cells, Day 7",3
same,Number of mice surviving,"[4]; 5 × 10^5 cells, Day 8",2
same,Number of mice surviving,"[4]; 5 × 10^5 cells, Day 9",2
same,Number of mice surviving,"[4]; 5 × 10^5 cells, Day 10",2
same,Number of mice surviving,"[4]; 5 × 10^5 cells, Day 11",2
same,Number of mice surviving,"[4]; 5 × 10^5 cells, Day 12",2
same,Number of mice surviving,"[4]; 5 × 10^5 cells, Day 13",2
same,median survival,"[5]; 100,000 donor cells, 5 mg/kg twice daily",approximate doubling of median survival
same,survival,"[5]; 200,000 donor cells, 30 days of observation",survived at 30 days of observation
same,survival,"[5]; 500,000 donor cells, day 30",all survived
